The subject of the experiment is Drosophila melanogaster bursicon receptor LGR2 (rickets). The experiment in a line: bursicon receptor inhibitors, cAMP readout – cell-based, HEK293 transfected, TR-FRET cAMP, dry powder, orthogonal assay for LGR2 antagonist project, dose response (AID 977609). Conditions: bursicon-stimulated cAMP, Lance TR-FRET; for inhibition of cAMP: at 50 µM (top of the series). In general terms: TR-FRET usually uses a lanthanide donor and a delayed reading to cut background.

SMILES strings stand for the structures. The source made the active and inactive calls.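 The calls were made as follows: active = a rise in signal, meaning less cAMP, whose fitted curve reaches 40% at or below the top valid tested dose; inconclusive = flat fit between 30% and 70%, or a poor fit; inactive = the rest.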 A value given as a limit tells only on which side of the number the result lay.

Data on 53 compounds can be found in PubChem BioAssay AID977609 (Broad Institute, 2014).

`C[C@@H]1CN([C@H](C)CO)C(=O)c2cc(NC(=O)C3CCCCC3)ccc2O[C@@H](C)CCCCO[C@H]1CN(C)C(=O)Nc1cccc2ccccc12`: the AC40 is > 50000 nM (inactive).

Turning to `C[C@H](CO)N1C[C@H](C)[C@H](CN(C)C(=O)Nc2cccc(F)c2)OCCCC[C@H](C)Oc2ccc(NC(=O)C3CCCCC3)cc2C1=O`, the AC40 was 858 nM.

Consider `C[C@H](CO)N1C[C@H](C)[C@H](CN(C)C(=O)Nc2cccc3ccccc23)OCCCC[C@H](C)Oc2ccc(NC(=O)c3ccccc3)cc2C1=O`, for which the AC40 is 2490 nM.

For the compound `C[C@H](CO)N1C[C@H](C)[C@H](CN(C)C(=O)Nc2ccc(F)cc2)OCCCC[C@H](C)Oc2ccc(NC(=O)C3CC3)cc2C1=O`, the AC40 is 49600 nM.

Turning to `C[C@H](CO)N1C[C@H](C)[C@H](CN(C)C(=O)Nc2ccccc2)OCCCC[C@H](C)Oc2ccc(NC(=O)CCC(F)(F)F)cc2C1=O`, the AC40 was 1530 nM.

Consider `C[C@@H]1CCCCO[C@@H](CN(C)C(=O)Nc2cccc3ccccc23)[C@@H](C)CN([C@H](C)CO)C(=O)c2cc(NC(=O)C3CCCCC3)ccc2O1`, for which the inhibition of cAMP is -2.89% (inactive).

In the case of `C[C@H](CO)N1C[C@H](C)[C@H](CN(C)C(=O)Nc2ccccc2)OCCCC[C@H](C)Oc2ccc(NC(=O)NC3CCCCC3)cc2C1=O`, the AC40 was 3220 nM.

`Cc1ccc(NC(=O)N(C)C[C@@H]2OCCCC[C@H](C)Oc3ccc(NC(=O)C4CCCCC4)cc3C(=O)N([C@H](C)CO)C[C@@H]2C)cc1`: the AC40 was 1050 nM.

Regarding `C[C@@H]1CCCCO[C@H](CN(C)C(=O)Nc2cccc3ccccc23)[C@@H](C)CN([C@H](C)CO)C(=O)c2cc(NC(=O)C3CCCCC3)ccc2O1`, the AC40 is > 50000 nM (inactive).

Take `COc1ccc(NC(=O)N(C)C[C@@H]2OCCCC[C@H](C)Oc3ccc(NC(=O)C4CCCCC4)cc3C(=O)N([C@H](C)CO)C[C@@H]2C)cc1`: the AC40 was 1480 nM.

For `C[C@H](CO)N1C[C@H](C)[C@H](CN(C)C(=O)Nc2ccc(F)cc2)OCCCC[C@H](C)Oc2ccc(NC(=O)NC3CCCCC3)cc2C1=O`, the AC40 was 3910 nM.

For the compound `COc1ccc(S(=O)(=O)N(C)C[C@@H]2OCCCC[C@H](C)Oc3ccc(NS(=O)(=O)c4ccc(Cl)cc4)cc3C(=O)N([C@@H](C)CO)C[C@@H]2C)cc1`, the inhibition of cAMP is 6.28% (inactive).

With `C[C@@H]1CN([C@@H](C)CO)C(=O)c2cc(NC(=O)C3CCCCC3)ccc2O[C@@H](C)CCCCO[C@@H]1CN(C)C(=O)Nc1cccc2ccccc12`, the inhibition of cAMP was 10.1% (inactive).

`C[C@H](CO)N1C[C@H](C)[C@H](CN(C)C(=O)Nc2ccccc2)OCCCC[C@H](C)Oc2ccc(NC(=O)C3CCCCC3)cc2C1=O`: the AC40 was 736 nM.

Turning to `C[C@H](CO)N1C[C@H](C)[C@H](CN(C)C(=O)Nc2ccccc2)OCCCC[C@H](C)Oc2ccc(NC(=O)Nc3ccc4c(c3)OCO4)cc2C1=O`, the AC40 is 7540 nM.

Consider `C[C@@H]1CCCCO[C@H](CN(C)C(=O)Nc2cccc3ccccc23)[C@@H](C)CN([C@@H](C)CO)C(=O)c2cc(NC(=O)C3CCCCC3)ccc2O1`, for which the AC40 is > 50000 nM (inactive).

For the compound `C[C@H](CO)N1C[C@H](C)[C@H](CN(C)C(=O)Nc2ccc3c(c2)OCO3)OCCCC[C@H](C)Oc2ccc(NC(=O)NC3CCCCC3)cc2C1=O`, the AC40 is 5490 nM.

On to `C[C@H]1CCCCO[C@@H](CN(C)S(=O)(=O)c2ccc(Cl)cc2)[C@@H](C)CN([C@@H](C)CO)C(=O)c2cc(NC(=O)NC3CCCCC3)ccc2O1`, for which the AC40 is > 50000 nM (inactive).

Take `C[C@H]1CCCCO[C@H](CN(C)C(=O)Nc2cccc3ccccc23)[C@@H](C)CN([C@@H](C)CO)C(=O)c2cc(NC(=O)C3CCCCC3)ccc2O1`: the AC40 was > 50000 nM (inactive).

In the case of `C[C@H](CO)N1C[C@H](C)[C@H](CN(C)C(=O)Nc2ccc(F)cc2)OCCCC[C@H](C)Oc2ccc(NC(=O)Nc3ccccc3)cc2C1=O`, the AC40 is 2890 nM.

Take `C[C@@H]1CCCCO[C@H](CN(C)C(=O)Nc2cccc3ccccc23)[C@H](C)CN([C@H](C)CO)C(=O)c2cc(NC(=O)C3CCCCC3)ccc2O1`: the AC40 is > 50000 nM (inactive).

In the case of `C[C@H]1CCCCO[C@@H](CN(C)C(=O)Nc2ccccc2)[C@@H](C)CN([C@@H](C)CO)C(=O)c2cc(NC(=O)NC3CCCCC3)ccc2O1`, the AC40 was 3580 nM.

Regarding `C[C@H](CO)N1C[C@H](C)[C@@H](CN(C)C(=O)Nc2cccc3ccccc23)OCCCC[C@H](C)Oc2ccc(NC(=O)C3CCCCC3)cc2C1=O`, the AC40 is > 50000 nM (inactive).

In the case of `C[C@H](CO)N1C[C@H](C)[C@H](CN(C)C(=O)Nc2ccc(F)cc2)OCCCC[C@H](C)Oc2ccc(NC(=O)C3CCC3)cc2C1=O`, the AC40 was 4980 nM.

As for `COc1ccc(NC(=O)N(C)C[C@@H]2OCCCC[C@H](C)Oc3ccc(NC(=O)NC4CCCCC4)cc3C(=O)N([C@H](C)CO)C[C@@H]2C)cc1`, the AC40 was 2040 nM.

As for `C[C@H](CO)N1C[C@H](C)[C@H](CN(C)C(=O)Nc2ccc3c(c2)OCO3)OCCCC[C@H](C)Oc2ccc(NC(=O)C3CCCCC3)cc2C1=O`, the AC40 was 837 nM.

Regarding `C[C@H](CO)N1C[C@H](C)[C@H](CN(C)C(=O)Nc2ccc(F)cc2)OCCCC[C@H](C)Oc2ccc(NC(=O)C3CCOCC3)cc2C1=O`, the AC40 was 25000 nM.

Take `CC(C)(C)c1ccc(-c2nc(-c3ccncc3)no2)cc1`: the inhibition of cAMP was 9.18% (inactive).

On to `C[C@@H]1CCCCO[C@@H](CN(C)C(=O)Nc2cccc3ccccc23)[C@H](C)CN([C@@H](C)CO)C(=O)c2cc(NC(=O)C3CCCCC3)ccc2O1`, for which the AC40 was > 50000 nM (inactive).

In the case of `C[C@H]1CCCCO[C@@H](CN(C)C(=O)Nc2ccc(C(F)(F)F)cc2)[C@@H](C)CN([C@@H](C)CO)C(=O)c2cc(NC(=O)CCC(F)(F)F)ccc2O1`, the AC40 was 2160 nM.

For the compound `C[C@H](CO)N1C[C@H](C)[C@H](CN(C)C(=O)Nc2ccc(F)cc2)OCCCC[C@H](C)Oc2ccc(NC(=O)Nc3ccc(F)cc3)cc2C1=O`, the AC40 is 4690 nM.

Turning to `C[C@H](CO)N1C[C@H](C)[C@H](CN(C)C(=O)Nc2cccc3ccccc23)OCCCC[C@H](C)Oc2ccc(NC(=O)CCC(F)(F)F)cc2C1=O`, the AC40 is 1950 nM.

As to `CC(=O)Nc1ccc2c(c1)C(=O)N([C@H](C)CO)C[C@H](C)[C@H](CN(C)C(=O)Nc1ccc(F)cc1)OCCCC[C@H](C)O2`, the AC40 was > 50000 nM (inactive).

As for `COc1ccc(S(=O)(=O)N(C)C[C@@H]2OCCCC[C@H](C)Oc3ccc(NS(=O)(=O)c4ccc(F)cc4)cc3C(=O)N([C@@H](C)CO)C[C@@H]2C)cc1`, the AC40 was > 50000 nM (inactive).

As for `C[C@H](CO)N1C[C@H](C)[C@H](CN(C)C(=O)Nc2cccc3ccccc23)OCCCC[C@H](C)Oc2ccc(NC(=O)C3CCCCC3)cc2C1=O`, the AC40 is 129 nM.

As to `C[C@@H]1CCCCO[C@H](CN(C)C(=O)Nc2cccc3ccccc23)[C@H](C)CN([C@@H](C)CO)C(=O)c2cc(NC(=O)C3CCCCC3)ccc2O1`, the inhibition of cAMP is 16% (inactive).

Regarding `C[C@H](CO)N1C[C@H](C)[C@H](CN(C)C(=O)Nc2ccccc2F)OCCCC[C@H](C)Oc2ccc(NC(=O)C3CCCCC3)cc2C1=O`, the AC40 is 515 nM.

With `C[C@H](CO)N1C[C@H](C)[C@H](CN(C)C(=O)Nc2ccc(F)cc2)OCCCC[C@H](C)Oc2ccc(NC(=O)C3CCCCCC3)cc2C1=O`, the AC40 is 248 nM.

Turning to `C[C@H]1CCCCO[C@@H](CN(C)C(=O)Nc2cccc3ccccc23)[C@@H](C)CN([C@@H](C)CO)C(=O)c2cc(NC(=O)C3CCCCC3)ccc2O1`, the AC40 is 353 nM.

On to `C[C@H](CO)N1C[C@H](C)[C@H](CN(C)C(=O)Nc2ccccc2)OCCCC[C@H](C)Oc2ccc(NC(=O)Nc3ccccc3)cc2C1=O`, for which the AC40 is 5860 nM.

Turning to `C[C@H]1CCCCO[C@@H](CN(C)C(=O)Nc2ccc(F)cc2)[C@@H](C)CN([C@@H](C)CO)C(=O)c2cc(NC(=O)C3CCCCC3)ccc2O1`, the AC40 is 1380 nM.

For the compound `C[C@H](CO)N1C[C@H](C)[C@H](CN(C)C(=O)Nc2ccc(C(F)(F)F)cc2)OCCCC[C@H](C)Oc2ccc(NC(=O)CCC(F)(F)F)cc2C1=O`, the AC40 was 949 nM.

In the case of `C[C@H](CO)N1C[C@H](C)[C@H](CN(C)C(=O)Nc2cccc3ccccc23)OCCCC[C@H](C)Oc2ccc(NC(=O)NC3CCCCC3)cc2C1=O`, the AC40 is 1650 nM.

As to `C[C@@H]1CCCCO[C@@H](CN(C)C(=O)Nc2cccc3ccccc23)[C@@H](C)CN([C@@H](C)CO)C(=O)c2cc(NC(=O)C3CCCCC3)ccc2O1`, the AC40 is > 50000 nM (inactive).

As to `C[C@H](CO)N1C[C@H](C)[C@H](CN(C)C(=O)Nc2ccc(C(F)(F)F)cc2)OCCCC[C@H](C)Oc2ccc(NC(=O)NC3CCCCC3)cc2C1=O`, the AC40 is 2710 nM.

Regarding `C[C@H](CO)N1C[C@H](C)[C@H](CN(C)C(=O)Nc2ccc3ccccc3c2)OCCCC[C@H](C)Oc2ccc(NC(=O)C3CCCCC3)cc2C1=O`, the AC40 was 219 nM.

For `C[C@H](CO)N1C[C@H](C)[C@H](CN(C)C(=O)Nc2ccc(F)cc2)OCCCC[C@H](C)Oc2ccc(NC(=O)C3CCCCC3)cc2C1=O`, the AC40 is 501 nM.

For `C[C@H]1CCCCO[C@@H](CN(C)C(=O)Nc2ccc3c(c2)OCO3)[C@@H](C)CN([C@@H](C)CO)C(=O)c2cc(NC(=O)NC3CCCCC3)ccc2O1`, the AC40 is 3790 nM.

Regarding `C[C@H](CO)N1C[C@H](C)[C@H](CN(C)C(=O)Nc2ccc(Cl)cc2)OCCCC[C@H](C)Oc2ccc(NC(=O)C3CCCCC3)cc2C1=O`, the AC40 is 853 nM.

On to `C[C@@H]1CCCCO[C@@H](CN(C)C(=O)Nc2cccc3ccccc23)[C@H](C)CN([C@H](C)CO)C(=O)c2cc(NC(=O)C3CCCCC3)ccc2O1`, for which the inhibition of cAMP was -5.85% (inactive).

Turning to `C[C@H](CO)N1C[C@H](C)[C@H](CN(C)C(=O)Nc2ccc(F)cc2)OCCCC[C@H](C)Oc2ccc(NC(=O)C3CCCC3)cc2C1=O`, the AC40 was 1750 nM.

With `C[C@@H]1CN([C@H](C)CO)C(=O)c2cc(NC(=O)C3CCCCC3)ccc2O[C@@H](C)CCCCO[C@@H]1CN(C)C(=O)Nc1cccc2ccccc12`, the AC40 was > 50000 nM (inactive).

Regarding `C[C@@H]1CN([C@@H](C)CO)C(=O)c2cc(NC(=O)C3CCCCC3)ccc2O[C@@H](C)CCCCO[C@H]1CN(C)C(=O)Nc1cccc2ccccc12`, the AC40 was > 50000 nM (inactive).
